The values below come from PMC11019550, “Potent Inhibition of E. coli DXP Synthase by a gem-Diaryl Bisubstrate Analog” (ACS Infectious Diseases, 2024).

Bounds are passed on as bounds.

In assay [1] the test system is porcine pyruvate dehydrogenase (PDH) E1 subunit. Nature of the assay: Inhibition of porcine pyruvate dehydrogenase (PDH). The format is biochemical. The conditions noted are these: DXPS over porcine PDH. From the text: As noted, DXPS has a large active site and follows a mechanism requiring ternary complex formation, distinct from other ThDP-dependent pyruvate decarboxylases. We hypothesized that the sterically demanding scaffold of 8, predicted to engage both substrate binding sites, should display selectivity for DXPS. In a preliminary assessment, we tested 8 as an inhibitor of porcine pyruvate dehydrogenase (PDH) E1 subunit. […] For comparison, the selectivity ratio for 1 was estimated to be >15,000-fold for DXPS over porcine PDH.
Figure S5. Evaluation of inhibitory activity of 8 against mammalian porcine pyruvate dehydrogenase (PDH). Porcine PDH (0.01 U/mL) and inhibitor (8 or MAP positive control) were preincubated for 10 minutes at 25 °C in enzyme buffer (2 mM MgCl2, 5 mM L-cysteine, 1 mM ThDP, 300 μM TCEP, 100 mM HEPES pH 8, 2.5 mM NAD +, and 100 μM coenzyme A). The reaction was initiated by addition of pyruvate (60 μM). The change in absorbance at 340 nm over time was measured and used to calculate the initial rate of NADH formation. The % activity of PDH in the presence of 8 or MAP was plotted using GraphPad Prism version 9. There is 21% inhibition of PDH activity observed in the presence of compound 8 at a concentration of 1 mM.
Experiments were performed in triplicate. Error bars represent standard error.
Figure S6. Replicate progress curves for DXP formation in the presence or absence of inhibitors 8 or 10 with EcDXPS. A) Progress curves for formation of DXP in the presence of 8 display time-dependence of inhibition. B) Progress curves for formation of DXP in the presence of descarboxyl […]

The next assay addresses T1, EcDXPS (Escherichia coli, UniProt P77488).
T1 construct: made in house
Nature of the assay: DXPS-IspC coupled assay, apparent Ki on wildtype EcDXPS. The format is biochemical. The conditions noted are these: for Ki: read-out: Ki^app; for fold change in Ki^app relative to 1: relative to compound 1. The protocol:
To determine inhibitor potency, we used the DXPS-DXP reductoisomerae (DXPS-IspC) coupled assay to measure the activity of recombinant purified EcDXPS[24],[25],[31],[44],[50] in the presence of inhibitors. Reactions were initiated by the addition of substrates following a short preincubation of the inhibitor with enzymes, and initial velocities were determined by monitoring reduced nicotinamide adenine dinucleotide phosphate (NADPH) absorbance at 340 nm. Apparent Ki values were determined by fitting initial velocity data to the Morrison equation,[64],[65] which accounts for the tight-binding nature (Ki^app/[E]total < 10)[66] of inhibitors included in this study and allows for rigorous comparison of inhibitor potencies. […] Inhibitor activities were rationalized based on the predictions made from molecular docking of the corresponding PLThDP adducts into the DXPS active site.
All compounds in this study were evaluated as DXPS inhibitors using the DXPS-IspC coupled assay as previously reported.[24] […] The DXPS reaction was initiated by the addition of substrates (50 μM pyruvate and 500 μM D-GAP). The initial rate of depletion of NADPH was monitored at 340 nm and was used to calculate the initial rate of DXP formation in the presence or absence of inhibitor. Initial rates of DXP formation were plotted as a function of [inhibitor], and Ki^app was determined by fitting the data to the Morrison equation (eq 1)[64],[65] in GraphPad Prism. This approach was deemed appropriate as the concentration of free inhibitor cannot be assumed to remain constant for most of these analogs in which Ki^app values approach the concentration of DXPS.[88],[89] Error is reported as standard deviation from three replicates. Active enzyme concentration ([E]T) was determined following Copeland’s method using 8 (Figure S2B).[88]
The coupled assay was initiated by adding 20 μL of a 10× substrate stock to the preincubated E + I mixture to give a final volume of 200 μL. The final concentration of D-GAP was held constant at 500 μM, and [pyruvate] was added to final concentrations between 0 and 250 μM. The initial rate of NADPH depletion in the IspC-coupled reaction was monitored at 340 nm and was used to calculate the initial rate of DXP formation in the presence or absence of inhibitor. Initial rates were plotted as a function of [pyruvate]. […] Model discrimination analysis employing the Akaike information criterion was performed as well as Lineweaver–Burk analysis to determine the mixed model as the best fit. In all cases, error bars represent the standard deviation from three replicates.

T1 sequence (P77488 whole entry): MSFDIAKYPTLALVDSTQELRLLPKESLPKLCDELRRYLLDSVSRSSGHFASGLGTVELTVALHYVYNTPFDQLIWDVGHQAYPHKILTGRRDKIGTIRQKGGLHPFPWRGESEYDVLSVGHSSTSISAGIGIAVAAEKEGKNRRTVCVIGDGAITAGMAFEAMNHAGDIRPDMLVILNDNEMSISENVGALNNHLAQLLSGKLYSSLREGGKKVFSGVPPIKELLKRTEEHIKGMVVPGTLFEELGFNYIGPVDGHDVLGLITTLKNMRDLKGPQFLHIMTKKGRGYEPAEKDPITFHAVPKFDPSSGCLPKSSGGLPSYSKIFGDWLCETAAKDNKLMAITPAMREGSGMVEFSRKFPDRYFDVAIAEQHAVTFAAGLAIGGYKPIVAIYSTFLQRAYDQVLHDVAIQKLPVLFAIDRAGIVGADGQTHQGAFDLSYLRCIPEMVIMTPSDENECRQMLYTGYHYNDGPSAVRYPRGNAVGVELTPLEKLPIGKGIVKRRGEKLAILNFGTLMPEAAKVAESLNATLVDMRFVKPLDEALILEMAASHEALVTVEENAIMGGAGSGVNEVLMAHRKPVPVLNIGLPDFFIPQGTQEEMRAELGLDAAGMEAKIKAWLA

`CC(=O)P(=O)(O)OCCc1cn([C@H](Cc2ccccc2)C(=O)O)nn1` [Compound 1, D-PheTrAP]: in assay [1], the “estimated selectivity ratio for DXPS over porcine PDH” value is listed as > 15,000 fold. For the same compound, the Ki on EcDXPS was determined as 260 ± 30 nM.

Take `CC(=O)P(=O)(O)OCCc1cn([C@H](Cc2ccc(-c3ccccc3)cc2)C(=O)O)nn1` [Compound 2]: at EcDXPS, the Ki amounted to 8000 ± 1000 nM and the “fold change in Ki^app relative to 1” value is listed as 30 fold.

Regarding `CC(=O)P(=O)(O)OCCc1cn([C@H](Cc2ccc(OCc3ccccc3)cc2)C(=O)O)nn1` [Compound 3], on EcDXPS, the Ki was 4900 ± 600 nM and the “fold change in Ki^app relative to 1” value is 19 fold.

For `CC(=O)P(=O)(O)OCCc1cn([C@H](COCc2ccccc2)C(=O)O)nn1` [Compound 4], at EcDXPS, the Ki turned out to be 1420 ± 50 nM and the “fold change in Ki^app relative to 1” value is on record as roughly 5 fold.

In the case of `CC(=O)P(=O)(O)OCCc1cn([C@@H](C(=O)O)c2ccccc2)nn1` [Compound 5], on EcDXPS, the Ki was found to be 2100 ± 200 nM and the “fold change in Ki^app relative to 1” value was 8 fold.

On to `CC(=O)P(=O)(O)OCCc1cn([C@@H](C(=O)O)C(c2ccccc2)c2ccccc2)nn1` [Compound 6], for which, on EcDXPS, the Ki turned out to be 570 ± 120 nM.

Consider `CC(=O)P(=O)(O)OCCc1cn([C@H](Cc2cccc3ccccc23)C(=O)O)nn1` [Compound 7], for which, at EcDXPS, the Ki was 600 ± 60 nM.

For `COC(=O)C(Cc1ccccc1)(Cc1ccccc1)n1cc(CCOP(=O)(O)C(C)=O)nn1` [Compound 11], the Ki at EcDXPS stood at 2900 ± 500 nM. Further, the “fold increase in Ki^app relative to 8” value at EcDXPS (relative to compound 8) stood at 1000 fold.

`CC(=O)P(=O)(O)OCCc1cn(C2(C(=O)O)Cc3ccccc3C2)nn1` [Compound 12]: the Ki on EcDXPS worked out at 290 ± 40 nM.

Turning to `CC(=O)P(=O)(O)OCCc1cn(C2(C(=O)O)CCCC2)nn1` [Compound 13], the Ki on EcDXPS came to 530 ± 110 nM.

In the case of `CC(=O)P(=O)(O)OCCc1cn([C@H](CC2CCCCC2)C(=O)O)nn1` [Compound 14], on EcDXPS, the Ki came out at 260 ± 60 nM.

For `CC(=O)P(=O)(O)OCCc1cn([C@@H](C(=O)O)C2CCCCC2)nn1` [Compound 15], on EcDXPS, the Ki amounted to 1600 ± 200 nM and the “fold change in Ki^app relative to 1” value stood at 6 fold.

Consider `CC(=O)P(=O)(O)OCCc1cn([C@@H](C(=O)O)C23CC4CC(CC(C4)C2)C3)nn1` [Compound 16], for which the Ki on EcDXPS was found to be 360 ± 10 nM.

Consider `CC(=O)P(=O)(O)OCCc1cn([C@H](C(=O)O)C23CC4CC(CC(C4)C2)C3)nn1` [Compound 17], for which the Ki on EcDXPS turned out to be 390 ± 60 nM.

As for `CC(=O)P(=O)(O)OCCc1cn([C@@H](CO)Cc2ccccc2)nn1` [Compound 18], at EcDXPS, the Ki turned out to be 13300 ± 1400 nM.

`CC(=O)P(=O)(O)OCCc1cn([C@H](CO)Cc2ccccc2)nn1` [Compound 19]: on EcDXPS, the Ki worked out at 13400 ± 1500 nM.

As for `CC(=O)P(=O)(O)OCCc1cn(C(c2ccccc2)c2ccccc2)nn1.CCN(CC)CC` [Compound 20], at EcDXPS, the Ki stood at 5420 ± 40 nM and the “fold change in Ki^app relative to 1” value is roughly 21 fold.

Consider `CC(=O)P(=O)(O)OCCc1cn([C@H](Cc2ccccc2)C(c2ccccc2)c2ccccc2)nn1` [Compound 21], for which the “inhibition of EcDXPS” value on EcDXPS (up to a concentration of 50 μM) is listed as “Minimal inhibition”.

On to `CC(=O)P(=O)(O)OCCc1cn([C@@H](Cc2ccccc2)C(c2ccccc2)c2ccccc2)nn1` [Compound 22], for which the “α (mixed inhibition model)” value at EcDXPS (mixed inhibition model) is given as greater than 1. Further, at EcDXPS (model discrimination by Akaike's information criterion, varied pyruvate), the inhibition mode result is given as “mixed inhibition mode”. Besides, on EcDXPS, the Ki came to 96000 ± 10000 nM and the “fold change in Ki^app relative to 1” value turned out to be 370 fold.
